From patent US20150359815A1, “PAK1 INHIBITION FOR TREATMENT OF ACUTE MYELOID LEUKEMIA AND MYELODYSPLASTIC SYNDROMES” (ALBERT EINSTEIN COLLEGE OF MEDICINE OF YESHIVA UNIVERSITY, priority 2013, published 2015)

Columns and labels:
MOLM13 = assay: Cell proliferation assay, MOLM13 AML cells; type: cell-based, human; conditions: FIG. 2
Procedure: (§1) Cell proliferation, cell cycle, and apoptosis assays. For cell proliferation assays, manual cell counts were performed by culturing cells in 24- or 48-well plates. Viable cells were counted using trypan blue exclusion and cell density was re-adjusted in each well every 3-5 days. For cell cycle assays, the Click-iT™ EdU Flow Cytometry Assay system (Invitrogen) was used following the manufacturer's instructions. For apoptosis assays, apoptotic and necrotic cells were analyzed by use of Annexin V/DAPI staining.

[1] = test system: AML and MDS cells isolated from the bone marrow of AML and MDS patients; assay: Growth of primary patient AML/MDS cells versus healthy donor hematopoietic cells; type: cell-based, human; conditions: primary bone marrow and peripheral blood samples; *p<0.05, **p<0.01; FIG. 5
Procedure: The experiments illustrated in FIG. 5 were performed using primary bone marrow and peripheral blood samples given by healthy donors and by patients with acute myeloid leukemia.

HL60 AML cells = assay: Cell proliferation assay, HL60 AML cells; type: cell-based, human; conditions: FIG. 2, FIG. 3
Procedure: as §1

[2] = test system: cells from a patient with myelodysplastic syndrome (MDS); assay: Colony formation of cells from a patient with myelodysplastic syndrome; type: cell-based, human; conditions: FIG. 8
Procedure: FIG. 8. Compound 1-mediated inhibition of PAK1: effects on colony formation of cells from a patient with myelodysplastic syndrome (MDS). Inhibition of PAKI is effective in both myelodysplastic syndrome (MDS) and acute myeloid leukemia (AML).
(§2) Colony, formation assays and serial replating assays. Assays were performed in MethoCult M3434 (Stern Cell Technologies, Vancouver, BC) containing IL-3, IL-6, SCF, and EPO or in MethoCult M3234 supplemented with M-CSF or GM-CSF as previously described (Higuchi et al, 2002; Huntly et al, 2004;Will et al, 2009). GFP+ colonies were scored 8-10 days after plating using an AXIOVERT 200M microscope (Zeiss, Maple Grove, Minn.). After scoring, GFP+ cells were re-sorted after each round and then serial replating assays were carried out. Cells were replated and colonies were again scored after 10-14 days.
FIG. 8 illustrates Compound 1-mediated inhibition of PAK1 effects on colony formation of cells from a patient with myelodysplastic syndrome (MDS) Inhibition of PAK1 is effective in both myelodysplastic syndrome (MDS) and acute myeloid leukemia (AML). See also FIG. 5.

AML cells [3] = assay: Apoptosis assay (Annexin V/DAPI), AML cells; type: cell-based; conditions: 24 hours of incubation, FIG. 6
Procedure: FIG. 6. […] 24 hours of incubation with Compound 1 (assay by Annexin V/DAPI), Black—Percentage of live cells; Grey—Percentage of apoptotic cells.
as §1

KG1a AML cells = assay: Cell proliferation assay, KG1a AML cells; type: cell-based, human; conditions: FIG. 2
Procedure: as §1

THP1 AML cells [4] = assay: Cell proliferation assay, THP1 AML cells; type: cell-based, human; conditions: FIG. 2, FIG. 7
Procedure: as §1

STAT4 = STAT4 expression in THP1 cells (Western Blot, qRT-PCR); type: cell-based, human; conditions: FIG. 10
Procedure: FIG. 10A-10B. STAT4 expression is increased upon treatment with Compound 1 (IPA-3) or PAKI shRNA knockdown in THP1 cells. A) Western Blot; B) qRT-PCR.
Quantitative real-time PCR. Total RNA was extracted from FACS-sorted cells or cultured cells using RNeasy Micro kit (Qiagen, Valencia, Calif.). cDNA was synthesized by Superscript II reverse transcriptase (Invitrogen, Carlsbad, Calif.). Real-time PCR was performed using an iQ5 real-time PCR detection system (BIO-RAD, Hercules, Calif.) with 1 cycle of 50° C. (2 min) and 95° C. (10 min) followed by 40 cycles of 95° C. (15 sec) and 60° C. (1 min) using Power SYBR Green PCR master mix (AB, Carlsbad, Calif.).
Western blotting. Total cell lysates were extracted in lysis buffer (50 mM Tris-Cl (pH 7.5), 1 mM EDTA, 150 mM NaCl, 1%NP-40, 1% sodium deoxycholate, 1 mM PMSF, and protease inhibitor (Roche)). Anti-Hlx polyclonal rabbit antibody (SantaCruz, clone H-130, sc-135014) and anti-actin polyclonal goat antibody (Santa Cruz, clone C-11, sc1615) were used as primary antibodies, […] anti-rabbit or anti-goat antibody (Santa Cruz) were used as secondary antibodies. ECL solution (Pierce) was used for detection.
(§3) In contrast, STAT4 expression is increased upon treatment with Compound 1 or PAK1 shRNA knockdown in THP1 cells (FIG. 10).

[5] = test system: downstream signaling pathways of PAK1; assay: Phosphorylation status of kinases in THP1 leukemia cells; type: cell-based, human; conditions: 4 hours, 6 μg/ml IPA-3 vs DMSO, FIG. 9
Source text: FIG. 9. Effect of Compound 1 (IPA-3) on downstream signaling pathways of PAKI.
as §3

AML cells [6] = assay: Colony formation assay, AML cells; type: cell-based; conditions: FIG. 4
Procedure: as §2

THP1 AML cells [7] = assay: Survival of mice injected with THP1 cells expressing PAK1 shRNA; type: in vivo; conditions: for liver infiltration of leukemia cells: animals receiving THP1 with shRNA vs control cells, not illustrated; for survival of mice: mice injected with 300,000 THP1 cells expressing shRNA, vs non-silencing control shRNA, FIG. 12B
Procedure: FIG. 12A-12B, Evaluation of PAK1 expression reduction in THP1 AML cells by shRNAs, A) Evaluated mRNA levels by RT-gPCR.
The effects on survival of reduced PAK1 expression in THP1 AML cells when expression was reduced by shRNAs was evaluated in mice.

## Oc1ccc2ccccc2c1SSc1c(O)ccc2ccccc12 [Compound 1, 1,1′-Disulfanediyldinaphthalen-2-ol]
MOLM13
  proliferation of MOLM13 AML cells: reduces proliferation
[1]
  effect on growth of AML and MDS patient cells compared with healthy hematopoietic cells: greater effect
HL60 AML cells
  proliferation of HL60 AML cells: reduces proliferation
[2]
  colony formation of cells from a patient with MDS: effective
AML cells [3]
  apoptosis in AML cells: induces apoptosis
KG1a AML cells
  proliferation of KG1a AML cells: reduces proliferation
THP1 AML cells [4]
  proliferation of THP1 AML cells: reduces proliferation
STAT4
  STAT4 expression: increased
[5]
  several additional oncogenic signaling pathways (kinase phosphorylation status): significantly inhibited
AML cells [6]
  colony formation ability of AML cells: reduces colony formation ability

## Cc1nc(Nc2n[nH]c3c2CN(C(=O)N[C@H](CN(C)C)c2ccccc2)C3(C)C)c2sccc2n1 [Compound 2, (S)-N-(2-(dimethylamino)-1-phenylethyl)-6,6-dimethyl-3-((2-methylthieno[3,2-d]pyrimidin-4-yl)amino)-4,6-dihydropyrrolo[3,4-c]pyrazole-5(1H)-carboxamide]
THP1 AML cells [4]
  proliferation of THP1 AML cells: reduces proliferation

## shRNA #1: short hairpin sequence for human PAK1, CGATGAGAAATACCAGCACTA, expressed by lentivirus (the letters are possibly those of the target site)
THP1 AML cells [7]
  liver infiltration of leukemia cells: Significantly less liver infiltration of leukemia cells
  survival of mice: Significant prolongation of survival

## shRNA #2: short hairpin sequence for human PAK1, GCGATCCTAAGAAGAAATATA, expressed by lentivirus (the letters are possibly those of the target site)
THP1 AML cells [7]
  liver infiltration of leukemia cells: Significantly less liver infiltration of leukemia cells
  survival of mice: Significant prolongation of survival
THP1 AML cells [7]; entire duration of the assay (90 days)
  long-term survival of some mice: long-term survival
